Reference: patent US9981930B1, “MAGL inhibitors” (ABIDE THERAPEUTICS, INC., priority 2016, dated 2018)

Assays:
MAGL Human = molecular target: T1, MAGL Human (Homo sapiens, UniProt Q99685); assay: In vitro competitive activity-based protein profiling (human); assay type: biochemical; details: human prefrontal cortex or cell membrane fractions; 30 min preincubation at 37° C.; FP-Rh or JW912 probe
T1 construct: Proteomes (human prefrontal cortex or cell membrane fractions); from tissue; host or cells: human prefrontal cortex or cell membrane fractions
T1 sequence (Q99685 1-303): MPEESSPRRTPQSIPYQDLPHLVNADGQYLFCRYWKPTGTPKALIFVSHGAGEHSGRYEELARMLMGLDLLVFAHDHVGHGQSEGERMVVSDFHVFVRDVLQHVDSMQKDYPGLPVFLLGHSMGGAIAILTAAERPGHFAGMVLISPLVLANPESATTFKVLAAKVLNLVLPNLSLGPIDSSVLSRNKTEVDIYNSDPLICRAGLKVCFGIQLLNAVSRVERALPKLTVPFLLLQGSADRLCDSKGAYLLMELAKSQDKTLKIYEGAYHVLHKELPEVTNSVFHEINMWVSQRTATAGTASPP
Method: In Vitro Competitive Activity-Based Protein Profiling (Human).
(§1) Proteomes (human prefrontal cortex or cell membrane fractions) (50 μL, 1.0-2.0 mg/mL total protein concentration) were preincubated with varying concentrations of inhibitors at 37° C. After 30 min, FP-Rh or JW912 (1.0 μL, 50 μM in DMSO) was added and the mixture was incubated for another 30 min at room temperature. Reactions were quenched with SDS loading buffer (15 μL-4×) and run on SDS-PAGE. Following gel imaging, serine hydrolase activity was determined by measuring fluorescent intensity of gel bands corresponding to MAGL using ImageJ 1.49k software.

MAGL = molecular target: T2, MAGL (Mus musculus, UniProt O35678); assay: Mouse brain proteomes from inhibitor treated mice (ex vivo activity-based protein profiling after oral gavage); assay type: in vivo; details: 5 mg/kg oral gavage, C57Bl/6J mice, brain proteomes 4 h following administration
T2 construct: from tissue; host or cells: brain of wild-type C57Bl/6J mice
T2 sequence (O35678 1-303): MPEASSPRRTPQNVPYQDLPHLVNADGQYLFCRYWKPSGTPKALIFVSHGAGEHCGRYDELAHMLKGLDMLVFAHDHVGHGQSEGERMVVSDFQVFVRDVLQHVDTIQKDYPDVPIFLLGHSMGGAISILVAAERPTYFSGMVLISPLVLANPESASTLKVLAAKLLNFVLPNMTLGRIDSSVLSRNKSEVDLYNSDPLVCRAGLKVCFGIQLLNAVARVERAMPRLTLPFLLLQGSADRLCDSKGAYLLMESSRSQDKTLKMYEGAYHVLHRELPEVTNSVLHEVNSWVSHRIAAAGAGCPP
Method: as §1, with “(mouse brain membrane fraction” for “(human prefrontal cortex”, “lysates)” for “membrane fractions)”, “1.0” for “1.0-2.0”, “FP-Rh” for “FP-Rh or JW912”, “37° C.” for “room temperature.”, “(50” for “(15”
Preparation of Mouse Brain Proteomes from Inhibitor Treated Mice.

SMILES | IC50 (MAGL Human) [nM] | inhibition at 5 mg/kg (MAGL) [%]
O=C(O)CCNc1cc(Cl)ccc1CN1CCN(C(=O)OC(C(F)(F)F)C(F)(F)F)CC1 [Example 5, 3-((5-Chloro-2-((4-(((1,1,1,3,3,3-hexafluoropropan-2-yl)oxy)carbonyl)piperazin-1-yl)methyl)phenyl)amino)propanoic acid] | < 100 | –
O=C(O)CCCNc1cc(Cl)ccc1CN1CCN(C(=O)OC(C(F)(F)F)C(F)(F)F)CC1 [Example 2, 4-((5-Chloro-2-((4-(((1,1,1,3,3,3-hexafluoropropan-2-yl)oxy)carbonyl)piperazin-1-yl)methyl)phenyl)amino)butanoic acid] | < 100 | 25 to 75
O=C(O)CNc1cc(C(F)(F)F)ccc1CN1CCN(C(=O)OC(C(F)(F)F)C(F)(F)F)CC1 [Example 6, (2-((4-(((1,1,1,3,3,3-Hexafluoropropan-2-yl)oxy)carbonyl)piperazin-1-yl)methyl)-5-(trifluoromethyl)phenyl)glycine] | < 100 | –
O=C(O)CNc1cc(Cl)ccc1CN1CCN(C(=O)OC(C(F)(F)F)C(F)(F)F)CC1 [Example 3, (5-Chloro-2-((4-(((1,1,1,3,3,3-hexafluoropropan-2-yl)oxy)carbonyl)piperazin-1-yl)methyl)phenyl)glycine] | < 100 | 25 to 75
C[C@H](Nc1cc(C(F)(F)F)ccc1CN1CCN(C(=O)OC(C(F)(F)F)C(F)(F)F)CC1)C(=O)O [Example 7, (2-((4-(((1,1,1,3,3,3-hexafluoropropan-2-yl)oxy)carbonyl)piperazin-1-yl)methyl)-5-(trifluoromethyl)phenyl)-L-alanine] | < 100 | 25 to 75

Second part, the compound after the results:

IC50 (MAGL Human) [nM] | inhibition at 5 mg/kg (MAGL) [%] | SMILES
< 100 | > 75 | O=C(O)CCNc1cc(C(F)(F)F)ccc1CN1CCN(C(=O)OC(C(F)(F)F)C(F)(F)F)CC1 [Example 4, 3-((2-((4-(((1,1,1,3,3,3-Hexafluoropropan-2-yl)oxy)carbonyl)piperazin-1-yl)methyl)-5-(trifluoromethyl)phenyl)amino)propanoic acid]
< 100 | > 75 | O=C(O)CCCNc1cc(C(F)(F)F)ccc1CN1CCN(C(=O)OC(C(F)(F)F)C(F)(F)F)CC1 [Example 1, 4-((2-((4-(((1,1,1,3,3,3-Hexafluoropropan-2-yl)oxy)carbonyl)piperazin-1-yl)methyl)-5-(trifluoromethyl)phenyl)amino)butanoic acid]
